Patent US6692695B1, “Industrial scale barrier technology for preservation of sensitive biological materials” (Quadrant Drug Delivery Limited, priority 1999, dated 2004)

Columns and labels:
[1] = Potency of Amphotericin after foam drying and storage
Experimental: (8) Freeze-dried samples of Amphotericin B were rehydrated with 5 ml 40 wt % sucrose per vial. Then the solutions were transferred into 50 ml sterilized glass vials for future preservation by drying. Before drying, the vials were covered with gray butyl slotted rubber stoppers. The vials were dried inside a vacuum chamber. The vials were placed on the surface of a stainless steel shelf inside the chamber. The shelf temperature was controlled by circulating ethylene glycol/water antifreeze at a controlled temperature inside the shelf. Before the vacuum was applied the shelf temperature was decreased to 5° C. The hydrostatic pressure inside the chamber was decreased to 0.5 Torr. Under such conditions the suspension boiled for 30 min. The temperature of the shelf was then slowly (during 30 min) increased to 25° C. Visually, stable dry foams were formed inside the vials under these experimental conditions within 3 hours. After an additional 12 hours of drying at room temperature, the chamber was filled with the dry N2 gas and the rubber stoppers in a portion of the vials were pushed down. The vials were removed from the chamber and subsequently sealed with aluminum crimped seal. The samples were assayed immediately after drying and after 30 days of storage at 27.5° and 40° C. The results are shown in Table 1, together with the results obtained in the next experiment.
Another set of freeze-dried samples of Amphotericin B was rehydrated with 5 ml 40 wt % sucrose per vial. The solutions were then transferred into sterilized glass vials for future preservation by drying similar to that described above with additional drying at 45° C. for additional 24 hours. After that, the chamber was filled again with the dry N2 gas, the rubber stoppers were pushed down and the vials were sealed. The samples were assayed right after drying and after 30 day of storage at 27.5° and 40° C.

[2] = Glass transition temperature of foam-dried sucrose particles; assay type: physicochemical
Experimental: (1) In the first test, the equipment set-up consisted of a 4.5 inch internal diameter glass tube connected to a standard Virtis SL600 Unitop condenser section and heated via two laboratory style hot plates from Coming. The opposite end of the glass tube was closed. A 200 ml solution of sucrose 50% (w/w) in de-ionized water was introduced to a 2 L PET beverage bottle, commonly used for soft drinks. This would be considered to be a semi-rigid container. The bottle was placed in the tube and the sucrose solution was preserved by foam formation. After mechanically stable foam was formed, the bottle containing the foam was held overnight at 0.3 Torr and 25° C. The next morning the vacuum was broken with air. Total process time was 23 hours. Immediately following tube disassembly, the bottle was removed from the tube and purged with dry nitrogen for approximately one minute. The bottle was capped with the accompanying plastic screw top. The foam appeared to completely fill the bottle. […] Next the bottle was struck against the laboratory counter about 8-10 times with light-moderate force. All of the foam inside broke apart into discreet particles with the visual and flow characteristics of sand. A small amount of material remained adhering to the bottle interior. The glass transition temperature of the coarse particulate material was 18° C.
(2) In a second test, the glass tube used in the first test was replaced with a jacketed glass tube. The jacket was filled with water and connected to a recirculating heater bath. The bottle used previously was replaced with a 1-gallon capacity polyethylene plastic storage bag, commonly available in supermarkets. This would be considered to be a flexible container. The bag was taped in place to a plastic holder to keep the bag open. The bag was filled with 150 ml of 50% (w/w) sucrose in de-ionized water. Primary foam drying was essentially completed 90 minutes later and the heating source switched to hot plates. Conditions at that point were 31° C. and 0.1 5 Torr. The foam was then held overnight. […]

[3] = Urokinase activity after foam drying and storage
Experimental: (7) Freeze-dried samples of Urokinase were rehydrated with 2 ml of 40 wt % sucrose. The solutions were then transferred to 20 ml sterilized glass vials for future preservation by drying. Before drying, the vials were covered with gray slotted rubber stoppers. The vials were dried inside a vacuum chamber. The vials were sitting on the surface of a stainless steel shelf inside the chamber. The shelf temperature was controlled by circulating ethylene glycol/water antifreeze at a controlled temperature inside the shelf. Before the vacuum was applied the shelf temperature was decreased to 5° C. Then the hydrostatic pressure inside the chamber was decreased to 0.5 Torr. Under such conditions, the suspension boiled for 30 min. […] Visually, under these experimental conditions, stable dry foams were formed inside the vials within 3 hours. After an additional 12 hours of drying at room temperature, the temperature was increased to 45° C. and maintained for an additional 24 hours. After that the chamber was filled with dry N2 gas, the rubber stoppers were pushed down and the vials were sealed with aluminum crimp seals.
The samples were assayed immediately after drying and after 30 days of storage at 40° C. After drying the Urokinase, activity was 93% of the initial activity. […]

Compound: C[C@@H]1[C@H](O)[C@@H](C)/C=C/C=C/C=C/C=C/C=C/C=C/C=C/[C@H](O[C@@H]2O[C@H](C)[C@@H](O)[C@H](N)[C@@H]2O)C[C@@H]2O[C@](O)(C[C@@H](O)C[C@@H](O)[C@H](O)CC[C@@H](O)C[C@@H](O)CC(=O)O[C@H]1C)C[C@H](O)[C@H]2C(=O)O [Amphotericin, Amphotericin B]
- Potency of Amphotericin (%) ([1]; Control): 126%
- Potency of Amphotericin (%) After 30 days at 27.5° C. ([1]; Td = 25° C.): 114%
- Potency of Amphotericin (%) After 30 days at 40° C. ([1]; Td = 25° C.): 95%
- Potency of Amphotericin (%) After drying ([1]; Td = 25° C.): 108%
- Potency of Amphotericin (%) After 30 days at 27.5° C. ([1]; Td = 45° C.): 102%
- Potency of Amphotericin (%) After 30 days at 40° C. ([1]; Td = 45° C.): 104%
- Potency of Amphotericin (%) After drying ([1]; Td = 45° C.): 103%

Compound: OC[C@H]1O[C@@](CO)(O[C@H]2O[C@H](CO)[C@@H](O)[C@H](O)[C@H]2O)[C@@H](O)[C@@H]1O [sucrose]
- glass transition temperature ([2]; 150 ml 50% (w/w) in 1-gallon polyethylene bag, 31° C., total 71 hours): 18.33 °C
- glass transition temperature ([2]; 200 ml 50% (w/w) in 2 L PET bottle, held overnight at 0.3 Torr and 25° C., total 23 hours): 18 °C
- glass transition temperature ([2]; 300 ml 50% (w/w) in larger bag, up to 55° C. and 0.2 Torr, total 23.5 hours): 33.3 °C

Compound: Urokinase
- activity, % of the initial activity ([3]; after 30 days of storage at 40° C.): 90%
- activity, % of the initial activity ([3]; after drying (40 wt % sucrose, up to 45° C.)): 93%
